# Earlier results as cited in patent publication US9968629B2, “Product and method for supporting uridine homeostasis” (N.V. Nutricia, priority 2012, dated 2018).
smiles,measurement,setting,value
O=c1ccn([C@@H]2O[C@H](CO)[C@@H](O)[C@H]2O)c(=O)[nH]1 [uridine],time after which all administered uridine has been used or is catabolised,"FIG. 3 in WO 2007/089703, plasma uridine levels",6 to 8 h
same,toxic side effects,high doses of uridine,"phlebitis, pyrogenic reactions and diarrhea"
same,half time in the plasma,plasma,3 to 4 h
